One assay has as its system U937 cancer cell line. The assay can be described thus: Cell inhibition assay (SRB cell viability), U937. It is filed as cell-based. To be noted: Homo sapiens, U-937, U937 cells, 72 h, IC50 range. The method, boiled down: (§1)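 Log-phase Hela, U937 and HUT cells were seeded at 1000 cells/well, grown 24 h, then exposed to compound (20 uM final) for 72 h. Viability was read by sulphorhodamine B staining and expressed as % inhibition relative to DMSO control. IC50 values came from sigmoidal variable-slope fits of eight concentrations.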

The target of assay [1] is T1, histone deacetylase activity (HeLa nuclear extract).
T1 construct: Histone deacetylase activity from crude nuclear extract derived from HeLa cells was used for screening
As to the kind of experiment: HDAC fluorescent activity assay (Biomol Fluor de Lys), HeLa nuclear extract. To be noted: Fluor de Lys substrate, IC50 range. It is filed as biochemical. The method in brief:
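Crude HeLa nuclear extract (20 mM Hepes, 100 mM KCl, 0.2 mM EDTA, 0.5 mM DTT, 0.2 mM PMSF, 20% glycerol) incubated with acetyl-lysine Fluor de Lys substrate ± inhibitor; developer generates fluorophore. Background-subtracted % of vehicle control; IC50 from eight-point variable-slope sigmoidal fit.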

The next assay relates to Hela cancer cell line. As to the kind of experiment: Cell inhibition assay (SRB cell viability), Hela. Particulars: Homo sapiens, HeLa, 72 h, Hela cells, IC50 range. It is filed as cell-based. The method in brief: as §1
A further assay has as its system HUT cancer cell line. As to the kind of experiment: Cell inhibition assay (SRB cell viability), HUT. It is filed as cell-based. To be noted: HUT cells, 72 h, IC50 range. The method in brief:
as §1

Where only a bound is given, the exact number is not on record here.

A word on the IC50: it is the midpoint of a concentration-inhibition curve. A low value points to greater potency.

Consider `O=C(CCCCCCC(=O)Nc1cccc(CNC(=O)N[C@@H](Cc2ccccc2)C(=O)OC2CCCC2)c1)NO` [Compound 81, (S)-2-{3-[3-(7-Hydroxycarbamoyl-heptanoylamino)-benzyl]-ureido}-3-phenyl-propionic acid cyclopentyl ester], for which the half-inhibitory concentration (IC50) in the assay with U937 cancer cell line is greater than 3300 nM; in assay [1] it was less than 100 nM; with Hela cancer cell line it was greater than 3300 nM; with HUT cancer cell line, 330 to 3300 nM.
For `O=C(CCCCCCC(=O)Nc1ccc(CN[C@@H](C(=O)OC2CCCC2)c2ccccc2)cc1)NO` [Compound 83, (R)-[4-(7-Hydroxycarbamoyl-heptanoylamino)-benzylamino]-phenyl-acetic acid cyclopentyl ester], the half-maximal inhibitory concentration (IC50) in the assay on U937 cancer cell line lay within 330 to 3300 nM; in assay [1] it was 101 to 1000 nM; in the assay on Hela cancer cell line it was 330 to 3300 nM; in the assay with HUT cancer cell line, 330 to 3300 nM.
For the compound `CC(C)C[C@H](NCc1ccc(NC(=O)CCCCCCC(=O)NO)cc1)C(=O)OC1CCCC1` [Compound 85, (S)-2-[4-(7-Hydroxycarbamoyl-heptanoylamino)-benzylamino]-4-methyl-pentanoic acid cyclopentyl ester], the IC50 in the assay with U937 cancer cell line was less than 330 nM; in assay [1] it was 101 to 1000 nM; in the assay with Hela cancer cell line, greater than 3300 nM; in the assay with HUT cancer cell line, 330 to 3300 nM.
Turning to `O=C(CCCCCCC(=O)Nc1ccc(CN[C@H](C(=O)OC2CCCC2)C2CCCCC2)cc1)NO` [Compound 86, (S)-Cyclohexyl-[4-(7-hydroxycarbamoyl-heptanoylamino)-benzylamino]-acetic acid cyclopentyl ester], the 50% inhibitory concentration (IC50) is less than 330 nM in the assay on U937 cancer cell line, 101 to 1000 nM in assay [1], greater than 3300 nM in the assay on Hela cancer cell line and 330 to 3300 nM in the assay with HUT cancer cell line.
For `CC(OC(C)(C)C)[C@H](NCc1ccc(NC(=O)CCCCCCC(=O)NO)cc1)C(=O)OC1CCCC1` (stereo partly drawn) [Compound 88, (S)-3-tert-Butoxy-2-[4-(7-hydroxycarbamoyl-heptanoylamino)-benzylamino]-butyric acid cyclopentyl ester], in that order: less than 330 nM, 101 to 1000 nM, 330 to 3300 nM and 330 to 3300 nM.
The corresponding values for `CC(C)(C)OC[C@H](NCc1ccc(NC(=O)CCCCCCC(=O)NO)cc1)C(=O)OC1CCCC1` [Compound 89, (S)-3-tert-Butoxy-2-[4-(7-hydroxycarbamoyl-heptanoylamino)-benzylamino]-propionic acid cyclopentyl ester] are less than 330 nM, 101 to 1000 nM, greater than 3300 nM and 330 to 3300 nM.
`O=C(CCCCCCC(=O)Nc1ccc(CN[C@@H](Cc2ccccc2)C(=O)OC2CCCC2)cc1)NO` [Compound 91, (S)-2-[4-(7-Hydroxycarbamoyl-heptanoylamino)-benzylamino]-3-phenyl-propionic acid cyclopentyl ester]: the 50% inhibitory concentration (IC50) is 330 to 3300 nM in the assay on U937 cancer cell line, 101 to 1000 nM in assay [1], greater than 3300 nM in the assay with Hela cancer cell line and 330 to 3300 nM in the assay with HUT cancer cell line.
`O=C(CCCCCCC(=O)Nc1cccc(OCCCC(=O)N[C@H](C(=O)OC2CCCC2)c2ccccc2)c1)NO` [Compound 92, (S)-{4-[3-(7-Hydroxycarbamoyl-heptanoylamino)-phenoxy]-butyrylamino}-phenyl-acetic acid cyclopentyl ester]: the IC50 with U937 cancer cell line was 330 to 3300 nM; in assay [1] it was less than 100 nM; in the assay with Hela cancer cell line, 330 to 3300 nM; in the assay with HUT cancer cell line, 330 to 3300 nM.
With `CC(C)C[C@H](NC(=O)[C@@H]1Cc2ccc(NC(=O)CCCCCCC(=O)NO)cc2CN1)C(=O)OC1CCCC1` [Compound 96, (S)-2-{[(S)-7-(7-Hydroxycarbamoyl-heptanoylamino)-1,2,3,4-tetrahydro-isoquinoline-3-carbonyl]-amino}-4-methyl-pentanoic acid cyclopentyl ester], the 50% inhibitory concentration (IC50) in the assay with U937 cancer cell line is 330 to 3300 nM; in assay [1], 101 to 1000 nM; in the assay on Hela cancer cell line it was greater than 3300 nM; in the assay with HUT cancer cell line, 330 to 3300 nM.
As to `CC(C)C[C@H](NC(=O)c1ccc(NC(=O)CCCCCCC(=O)NO)cc1)C(=O)OC1CCCC1` [Compound 98, (S)-2-[4-(7-Hydroxycarbamoyl-heptanoylamino)-benzoylamino]-4-methyl-pentanoic acid cyclopentyl ester], the IC50 in the assay on U937 cancer cell line was 330 to 3300 nM; in assay [1], 101 to 1000 nM; in the assay on Hela cancer cell line, 330 to 3300 nM; with HUT cancer cell line, 330 to 3300 nM.
With `O=C(CCCCCCNC(=O)c1cc2cc(CCC(=O)N[C@@H](Cc3ccccc3)C(=O)OC3CCCC3)ccc2[nH]1)NO` [Compound 100, (S)-2-{3-[2-(6-Hydroxycarbamoyl-hexylcarbamoyl)-1H-indol-5-yl]-propionylamino}-3-phenyl-propionic acid cyclopentyl ester], the IC50 is 330 to 3300 nM in the assay with U937 cancer cell line, less than 100 nM in assay [1], greater than 3300 nM in the assay on Hela cancer cell line and 330 to 3300 nM with HUT cancer cell line.
Regarding `O=C(Cc1ccc(OCCCC(=O)N[C@@H](Cc2ccccc2)C(=O)OC2CCCC2)cc1)Nc1ccc2sc(C(=O)NO)cc2c1` [Compound 102, (S)-2-(4-{4-[(2-Hydroxycarbamoyl-benzo[b]thiophen-5-ylcarbamoyl)-methyl]-phenoxy}-butyrylamino)-3-phenyl-propionic acid cyclopentyl ester], the half-maximal inhibitory concentration (IC50) is 330 to 3300 nM with U937 cancer cell line, 101 to 1000 nM in assay [1], greater than 3300 nM in the assay with Hela cancer cell line and greater than 3300 nM in the assay with HUT cancer cell line.
With `O=C(NO)c1cc2ccc(CNCc3ccc(CN[C@@H](Cc4ccccc4)C(=O)OC4CCCC4)cc3)cc2s1` [Compound 104, (S)-2-(4-{[(2-Hydroxycarbamoyl-benzo[b]thiophen-6-ylmethyl)-amino]-methyl}-benzylamino)-3-phenyl-propionic acid cyclopentyl ester], the IC50 in the assay with U937 cancer cell line is less than 330 nM; in assay [1], 101 to 1000 nM; in the assay with Hela cancer cell line it was 330 to 3300 nM; with HUT cancer cell line, 330 to 3300 nM.
As for `O=C(NO)c1cc2ccc(CNCc3ccc(CN[C@@H](Cc4ccc(O)cc4)C(=O)OC4CCCC4)cc3)cc2s1` [Compound 106, (S)-2-(4-{[(2-Hydroxycarbamoyl-benzo[b]thiophen-6-ylmethyl)-amino]-methyl}-benzylamino)-3-(4-hydroxy-phenyl)-propionic acid cyclopentyl ester], the 50% inhibitory concentration (IC50) is less than 330 nM with U937 cancer cell line, less than 100 nM in assay [1], 330 to 3300 nM in the assay with Hela cancer cell line and less than 330 nM in the assay with HUT cancer cell line.
In the case of `CC(OC(C)(C)C)[C@H](NCc1ccc(CNCc2ccc3cc(C(=O)NO)sc3c2)cc1)C(=O)OC1CCCC1` (stereo partly drawn) [Compound 108, (S)-3-tert-Butoxy-2-(4-{[(2-hydroxycarbamoyl-benzo[b]thiophen-6-ylmethyl)-amino]-methyl}-benzylamino)-butyric acid cyclopentyl ester], the IC50 with U937 cancer cell line was 330 to 3300 nM; in assay [1] it was 101 to 1000 nM; in the assay with Hela cancer cell line, 330 to 3300 nM; in the assay with HUT cancer cell line it was 330 to 3300 nM.
In the case of `CC(C)(C)OC[C@H](NCc1ccc(CNCc2ccc3cc(C(=O)NO)sc3c2)cc1)C(=O)OC1CCCC1` [Compound 109, (S)-3-tert-Butoxy-2-(4-{[(2-hydroxycarbarnoyl-benzo[b]thiophen-6-ylmethyl)-amino]-methyl}-benzylamino)-propionic acid cyclopentyl ester], the IC50 in the assay on U937 cancer cell line is less than 330 nM; in assay [1], less than 100 nM; in the assay with Hela cancer cell line, 330 to 3300 nM; with HUT cancer cell line it was 330 to 3300 nM.
